Drawing on patent publication US8822503B2, “2-pyridone compounds” (Taisho Pharmaceutical Co., Ltd, priority 2009, dated 2014), this text covers EC50 for 26 molecules.

The target of this experiment is T1, human liver GK (Homo sapiens, UniProt P35557).
T1 construct: GST (glutathione S-transferase) (N); made in house; host or cells: E. coli
T1 sequence (P35557 1-466 isoform P35557-2): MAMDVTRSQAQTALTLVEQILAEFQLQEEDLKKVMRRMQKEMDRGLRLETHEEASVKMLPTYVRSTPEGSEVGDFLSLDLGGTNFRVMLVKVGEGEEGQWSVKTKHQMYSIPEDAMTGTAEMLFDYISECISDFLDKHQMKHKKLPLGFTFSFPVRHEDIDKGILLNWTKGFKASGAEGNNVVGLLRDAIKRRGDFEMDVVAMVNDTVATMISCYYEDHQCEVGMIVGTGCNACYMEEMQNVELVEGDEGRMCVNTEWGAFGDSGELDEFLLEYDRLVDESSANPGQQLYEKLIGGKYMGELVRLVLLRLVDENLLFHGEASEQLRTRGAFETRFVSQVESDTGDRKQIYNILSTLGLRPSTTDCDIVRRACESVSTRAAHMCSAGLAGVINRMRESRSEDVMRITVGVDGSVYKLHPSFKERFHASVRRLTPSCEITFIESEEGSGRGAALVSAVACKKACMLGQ
Kind of experiment: GK activation test. The settings on record: test compound concentration needed to activate 50% of maximum activation ability; 4 mM 14C-labeled glucose, 2 mM ATP, room temperature, 20 minutes. The format is biochemical. The gist of the method: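 GST-tagged human liver GK from E. coli (0.24 μg/well) with 4 mM 14C-glucose, 2 mM ATP in Hepes-KOH pH 7.1, KCl, MgCl2, DTT, 1% DMSO, 20 min room temperature. Labeled glucose 6-phosphate captured on anion resin, eluted and counted. EC50 = concentration giving half of maximal activation.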
For the molecule `CC(C)c1ccc(C(C[C@H]2CCC(=O)N2)c2ccc(C3CC3)c(=O)[nH]2)cc1Cl` (single isomer, unassigned) [Example 4-321], the EC50 lay in the range of 500 to 3000 nM.

Turning to `CCN(CC)CCCOc1ccc(/C(=C\[C@H]2CCC(=O)C2)c2ccc(C3CC3)c(=O)[nH]2)cc1Cl` [Example 1-79, 6-{(E)-1-{3-Chloro-4-[3-(diethylamino)propoxy]phenyl}-2-[(1S)-3-oxocyclopentyl]ethenyl}-3-cyclopropylpyridin-2(1H)-one], the 50% effective concentration (EC50) lay in the range of 10 to 500 nM.

As to `O=C1CC[C@H](/C=C(/c2ccc(C3CC3)c(=O)[nH]2)c2ccc(Cl)cc2C(F)(F)F)N1` [Example 4-110, 6-{(E)-1-[4-Chloro-2-(trifluoromethyl)phenyl]-2-[(2R)-5-oxopyrrolidin-2-yl]ethenyl}-3-cyclopropylpyridin-2(1H)-one], the EC50 was in the range of 500 to 3000 nM.

Regarding `CSc1ccc(/C(=C\C2CCCC2)c2ccc(C)c(=O)[nH]2)cc1` [Example 1-7, 6-{(E)-2-Cyclopentyl-1-[4-(methylsulfanyl)phenyl]ethenyl}-3-methylpyridin-2(1H)-one], the concentration giving a half-maximal response (EC50) was in the range of 10 to 500 nM.

For the molecule `Cc1ccc(/C(=C\[C@H]2CCC(=O)N2)c2ccc(C3CC3)c(=O)[nH]2)cc1` [Example 4-4, 3-Cyclopropyl-6-{(E)-1-(4-methylphenyl)-2-[(2R)-5-oxopyrrolidin-2-yl]ethenyl}pyridin-2(1H)-one], the EC50 lay in the range of 10 to 500 nM.

In turn, `CCN(CC)CCCNc1ccc(/C(=C\C2CCCC2)c2ccc(C(F)(F)F)c(=O)[nH]2)cc1` [Example 1-43, 6-[(E)-2-Cyclopentyl-1-(4-{[3-(diethylamino)propyl]amino}phenyl)ethenyl]-3-(trifluoromethyl)pyridin-2(1H)-one] came in with an EC50 of 3000 to 10000 nM.

Turning to `CCN(CC)CCCOc1ccc(/C(=C\C2CCOCC2)c2ccc(C3CC3)c(=O)[nH]2)cc1Cl` [Example 1-57, 6-[(E)-1-{3-Chloro-4-[3-(diethylamino)propoxy]phenyl}-2-(tetrahydro-2H-pyran-4-yl)ethenyl]-3-cyclopropylpyridin-2(1H)-one], the EC50 was in the range of 500 to 3000 nM.

As to `CCc1ccc(/C(=C/[C@H]2CCC(=O)C2)c2ccc(S(C)(=O)=O)c(Cl)c2)[nH]c1=O` [Example 1-70, 6-{(E)-1-[3-Chloro-4-(methylsulfonyl)phenyl]-2-[(1S)-3-oxocyclopentyl]ethenyl}-3-ethylpyridin-2(1H)-one], the EC50 lay within 10 to 500 nM.

`COc1cc(F)c(/C(=C\[C@H]2CCC(=O)N2)c2ccc(C3CC3)c(=O)[nH]2)cc1Cl` [Example 4-274, 6-{(E)-1-(5-Chloro-2-fluoro-4-methoxyphenyl)-2-[(2R)-5-oxopyrrolidin-2-yl]ethenyl}-3-cyclopropylpyridin-2(1H)-one] displayed a 50% effective concentration (EC50) of 10 to 500 nM.

Take `CC(C)(C)c1ccc(/C(=C\[C@H]2CCC(=O)N2)c2ccc(Br)c(=O)[nH]2)cc1` [Example 4-177, 3-Bromo-6-{(E)-1-(4-tert-butylphenyl)-2-[(2R)-5-oxopyrrolidin-2-yl]ethenyl}pyridin-2(1H)-one]: the half-maximal effective concentration (EC50) was in the range of 10 to 500 nM.

Turning to `CC(=O)Nc1ccc(/C(=C\C2CCCC2)c2ccc(Cl)c(=O)[nH]2)cc1` [Example 1-105, N-{4-[(E)-1-(5-Chloro-6-oxo-1,6-dihydropyridin-2-yl)-2-cyclopentylethenyl]phenyl}acetamide], the half-maximal effective concentration (EC50) was in the range of 500 to 3000 nM.

`CC(=O)c1ccc(/C(=C/[C@H]2CCC(=O)N2)c2ccc(C(C)(C)C)cc2)[nH]c1=O` [Example 4-175, 3-Acetyl-6-{(E)-1-(4-tert-butylphenyl)-2-[(2R)-5-oxopyrrolidin-2-yl]ethenyl}pyridin-2(1H)-one]: the EC50 lay in the range of 500 to 3000 nM.

The molecule `CSc1ccc(/C(=C\C2CCCC2)c2ccc(C)c(=O)[nH]2)cn1` [Example 1-34, 6-{(E)-2-Cyclopentyl-1-[6-(methylsulfanyl)pyridin-3-yl]ethenyl}-3-methylpyridin-2(1H)-one] showed an EC50 of 500 to 3000 nM.

`CC(C)(C)c1ccc(/C(=C\Cn2cccnc2=O)c2ccc(Cl)c(=O)[nH]2)cc1` [Example 6-32, 1-[(2E)-3-(4-tert-Butylphenyl)-3-(5-chloro-6-oxo-1,6-dihydropyridin-2-yl)prop-2-en-1-yl]pyrimidin-2(1H)-one]: the half-maximal effective concentration (EC50) fell in the range of 3000 to 10000 nM.

In the case of `CC(C)(C)c1ccc(/C(=C\[C@H]2CCC(=O)N2)c2ccc(-c3cnoc3)c(=O)[nH]2)cc1` [Example 4-184, 6-{(E)-1-(4-tert-Butylphenyl)-2-[(2R)-5-oxopyrrolidin-2-yl]ethenyl}-3-(1,2-oxazol-4-yl)pyridin-2(1H)-one], the half-maximal effective concentration (EC50) is 10 to 500 nM.

With `CCN(CC)CCCOc1ccc(/C(=C\[C@H]2CCC(=O)C2)c2ccc(C3CC3)c(=O)[nH]2)cc1` [Example 1-66, 3-Cyclopropyl-6-{(E)-1-{4-[3-(diethylamino)propoxy]phenyl}-2-[(1S)-3-oxocyclopentyl]ethenyl}pyridin-2(1H)-one], the 50% effective concentration (EC50) was 500 to 3000 nM.

For `CCCc1ccc(C(C[C@H]2CCC(=O)N2)c2ccc(Cl)c(=O)[nH]2)cc1` (single isomer, unassigned) [Example 4-312], the EC50 lay within 500 to 3000 nM.

The molecule `CC(C)Oc1ccc(C(C[C@H]2CCC(=O)N2)c2ccc(C3CC3)c(=O)[nH]2)cc1Cl` (single isomer, unassigned) [Example 4-322] came in with a half-maximal effective concentration (EC50) of 10 to 500 nM.

`O=C1CC[C@H](C[C@H](c2ccc(Cl)c(Cl)c2)c2ccc(C3CC3)c(=O)[nH]2)N1` [Example 4-207, 3-Cyclopropyl-6-{(1R)-1-(3,4-dichlorophenyl)-2-[(2R)-5-oxopyrrolidin-2-yl]ethyl}pyridin-2(1H)-one] came in with an EC50 of 10 to 500 nM.

The molecule `O=C1CC[C@H](CC(c2ccc(F)c(Cl)c2)c2ccc(C3CC3)c(=O)[nH]2)N1` (single isomer, unassigned) [Example 4-211] registered an EC50 of 500 to 3000 nM.

Molecule `O=C1CC[C@H](/C=C(\c2ccc(Cl)nc2)c2ccc(C3CC3)c(=O)[nH]2)N1` [Example 4-120, 6-{(E)-1-(6-Chloropyridin-3-yl)-2-[(2R)-5-oxopyrrolidin-2-yl]ethenyl}-3-cyclopropylpyridin-2(1H)-one] returned an EC50 of 500 to 3000 nM.

The molecule `O=C1CC[C@H](CC(c2ccc(C(F)(F)F)cc2)c2ccc(C3CC3)c(=O)[nH]2)N1` (single isomer, unassigned) [Example 4-249] gave a concentration giving a half-maximal response (EC50) of 3000 to 10000 nM.

Take `CC(C)(C)c1ccc(/C(=C\Cn2ncccc2=O)c2ccc(Cl)c(=O)[nH]2)cc1` [Example 6-33, 2-[(2E)-3-(4-tert-Butylphenyl)-3-(5-chloro-6-oxo-1,6-dihydropyridin-2-yl)prop-2-en-1-yl]pyridazin-3(2H)-one]: the half-maximal effective concentration (EC50) fell in the range of 500 to 3000 nM.

Turning to `CCc1ccc(/C(=C/[C@H]2CCC(=O)C2)c2ccc(SC)c(Cl)c2)[nH]c1=O` [Example 1-69, 6-{(E)-1-[3-Chloro-4-(methylsulfanyl)phenyl]-2-[(1S)-3-oxocyclopentyl]ethenyl}-3-ethylpyridin-2(1H)-one], the EC50 fell in the range of 10 to 500 nM.

For `Cc1ccc(/C(=C\[C@H]2CCC(=O)N2)c2ccc(C3CC3)c(=O)[nH]2)cc1C` [Example 4-115, 3-Cyclopropyl-6-{(E)-1-(3,4-dimethylphenyl)-2-[(2R)-5-oxopyrrolidin-2-yl]ethenyl}pyridin-2(1H)-one], the EC50 fell in the range of 10 to 500 nM.

For the molecule `O=C1CC[C@H](/C=C(\c2ccc(F)c(F)c2)c2ccc(C3CC3)c(=O)[nH]2)N1` [Example 4-112, 3-Cyclopropyl-6-{(E)-1-(3,4-difluorophenyl)-2-[(2R)-5-oxopyrrolidin-2-yl]ethenyl}pyridin-2(1H)-one], the EC50 is 500 to 3000 nM.
